# Assay results from US6610720B2, “Method for treating or preventing emesis” (Merck Frosst Canada & Co., priority 2000, dated 2003).
# Entries after “also recorded” stand apart in the source; their conditions may differ. Read-outs that look alike come from different tables or passages of the source. Marks after values point to notes of the source that are not given here.
# Columns and labels:
# [1] = system: ferrets; assay: Administration of alpha-2 adrenoceptor antagonists to ferrets (retching and vomiting); settings: for Retches / Vomits / Latency responders only: mean±SEM; for Emesis following administration (in words): ferrets
# Description: The ferrets were housed in a humidity and temperature controlled environment with food (Marshall Premium ferret diet; Marshall Farms, North Rose, N.Y., U.S.A.) and water provided ad libitum. On the day of the experiment, ferrets were put into individual cages and left to habituate for at least 30 minutes. Fasting was not a pre-requisite of these experiments. Pre-treatment with a test compound or vehicle was performed using a subcutaneous, an intraperitoneal or an oral administration, 60 minutes prior to the emetic challenge. […] Drugs were freshly prepared on the day of the experiment. […] During that time, the number of retches (i.e. rhythmic contraction of the abdomen) and vomiting movements (i.e. oral expulsion or attempt to expel solid/liquid matter from the gastrointestinal tract) were recorded.
# Data is expressed as mean±SEM.
# [2] = system: ferrets; assay: Behavioural effects observed following the administration of RS14203 in ferrets; format: in vivo, ferret (Mustela putorius furo); settings: RS14203 1 mg/kg p.o.
# Source text: (§1) Fasting was not a pre-requisite of these experiments.
# [3] = system: humans; settings: cited from earlier work
# [4] = system: ferrets; settings: for Incidence / Retches / Vomits / Latency responders only: 60 min prior; for Retches / Vomits: 2 h observation
# Source text: The anti-emetic activity of alpha-2 adrenoceptor agonists is preferably measured using, for instance, an in vivo emesis assay in the ferret. A variety of emetic stimuli may be employed including, for example, treatment with type IV cyclic nucleotide phosphodiesterase (PDE4) inhibitors (see Robichaud et al, Neuropharmacology (1999) 38, 289-297).
# as §1
# [5] = system: ferrets; settings: doses ranging from 62.5-250 μg/kg
# Description: Male adult ferrets (Mustela putorius furo; 1-2 kg, Marshall Farms, North Rose, N.Y., U.S.A.) were used and experiments were conducted according to procedures previously described (Robichaud et al, 1999, supra). The ferrets were housed in a humidity and temperature controlled environment with food (Marshall Premium ferret diet; Marshall Farms, North Rose, N.Y., U.S.A.) and water provided ad libitum. On the day of the experiment, ferrets were put into individual cages and left to habituate for at least 30 minutes. Fasting was not a pre-requisite of these experiments. Pre-treatment with a test compound or vehicle was performed using a subcutaneous, an intraperitoneal or an oral administration, 60 minutes prior to the emetic challenge. Emesis was induced by PDE4 inhibitors administered orally (dosing volume=1 ml/kg) at a dose known to cause emesis (Robichaud et al, 1999, supra). Drugs were freshly prepared on the day of the experiment. […] During that time, the number of retches (i.e. rhythmic contraction of the abdomen) and vomiting movements (i.e. oral expulsion or attempt to expel solid/liquid matter from the gastrointestinal tract) were recorded.
# [6] = system: elderly patients; settings: elderly patients undergoing intraocular surgery; cited from earlier work
# [7] = system: dogs; settings: i.m.; cited from earlier work
# [8] = system: children (3-12 yr); settings: cited from earlier work
# [9] = emetic agent CT-2450 30 mg/kg p.o., pre-treatment 250 μg/kg s.c.
# [10] = emetic agent R-rolipram 3 mg/kg p.o., pre-treatment 250 μg/kg s.c.
# [11] = emetic agent R-rolipram 3 mg/kg p.o., pre-treatment 250 μg/kg s.c., mean ± SEM
# [12] = emetic agent RS14203 1 mg/kg p.o., pre-treatment 62.5 μg/kg s.c., mean ± SEM
# [13] = emetic agent RS14203 1 mg/kg p.o., pre-treatment 125 μg/kg s.c.
# [14] = emetic agent RS14203 1 mg/kg p.o., pre-treatment 125 μg/kg s.c., mean ± SEM
# [15] = emetic agent RS14203 1 mg/kg p.o., pre-treatment 250 μg/kg s.c.
# [16] = emetic agent RS14203 1 mg/kg p.o., pre-treatment 250 μg/kg s.c., mean ± SEM
# [17] = pre-treatment 250 μg/kg s.c., listed as Clonidine
smiles,measurement,setting,value
CS(=O)(=O)NCCN1C(=O)NC[C@]12CCN1CCc3c(oc4ccccc34)[C@@H]1C2 [MK-467],Incidence,[1]; 1 mg/kg p.o.,0/3
same,Retches,[1]; 1 mg/kg p.o.,0 n° episodes
same,Vomits,[1]; 1 mg/kg p.o.,0 n° episodes
same,Incidence,[1]; 3 mg/kg p.o.,1/3
same,Latency responders only,[1]; 3 mg/kg p.o.,12 min
same,Retches,[1]; 3 mg/kg p.o.,4 ± 4 n° episodes
same,Vomits,[1]; 3 mg/kg p.o.,0.3 ± 0.3 n° episodes
same,Incidence,[1]; 10 mg/kg po,2/3
same,Latency responders only,[1]; 10 mg/kg po,18.5 ± 2.5 min
same,Retches,[1]; 10 mg/kg po,12 ± 6 n° episodes
same,Vomits,[1]; 10 mg/kg po,1.3 ± 0.9 n° episodes
same,Emesis following administration (in words),[1],Emesis was also recorded
CN1CC[C@]2(CCN3CCc4c(oc5ccccc45)[C@@H]3C2)N(C)C1=O.Cl [MK-912],Incidence,[1]; 1 mg/kg p.o.,2/8
same,Latency responders only,[1]; 1 mg/kg p.o.,13.0 ± 5.0 min
same,Retches,[1]; 1 mg/kg p.o.,3.2 ± 2.3 n° episodes
same,Vomits,[1]; 1 mg/kg p.o.,0.4 ± 0.3 n° episodes
same,Emesis following administration (in words),[1],Emesis was also recorded
O=[N+]([O-])c1cccc(-c2cc(Cc3ccncc3)cc3cccnc23)c1 [RS14203],Behavioural effects produced in addition to emesis,[2],"salivation, hyperventilation, gagging and clawing at the mouth"
"COC(=O)[C@@H]1[C@H]2C[C@H]3c4[nH]c5ccccc5c4CCN3C[C@@H]2CC[C@@H]1O [Yohimbine, yohimbine]",Adverse effects following parenteral administration,[3],nausea and vomiting
same,Incidence,[1]; 3 mg/kg i.p.,3/3
same,Latency responders only,[1]; 3 mg/kg i.p.,7 ± 1 min
same,Retches,[1]; 3 mg/kg i.p.,18.7 ± 3.8 n° episodes
same,Vomits,[1]; 3 mg/kg i.p.,5.3 ± 1.8 n° episodes
same,Incidence,[1]; 3 mg/kg p.o.,3/4
same,Latency responders only,[1]; 3 mg/kg p.o.,30.3 ± 13.4 min
same,Retches,[1]; 3 mg/kg p.o.,9.8 ± 6.2 n° episodes
same,Vomits,[1]; 3 mg/kg p.o.,3.2 ± 1.2 n° episodes
same,Incidence,[1]; 3 mg/kg s.c.,2/3
same,Latency responders only,[1]; 3 mg/kg s.c.,9.5 ± 2.5 min
same,Retches,[1]; 3 mg/kg s.c.,29.7 ± 17.6 n° episodes
same,Vomits,[1]; 3 mg/kg s.c.,3.0 ± 1.7 n° episodes
same,Emesis following administration (in words),[1],induced retching and vomiting in all ferrets treated; also recorded: caused unexpected retching and vomiting
Clc1cccc(Cl)c1N=C1NCCN1 [clonidine],Effect on emesis induced by CT-2450,"[4]; CT-2450 30 mg/kg p.o., pre-treatment 250 μg/kg, all animals treated",abolished emesis
same,Animals with complete protection against R-rolipram-induced emesis,"[4]; R-rolipram 3 mg/kg p.o., pre-treatment 250 μg/kg",two out of three
same,Animals showing complete protection against RS14203-induced emesis,"[4]; RS14203 1 mg/kg p.o., pre-treatment 250 μg/kg",five out of six
same,Effect on number of retches and vomits induced by RS14203,"[4]; RS14203 1 mg/kg p.o., pre-treatment 62.5-250 μg/kg",dose-dependently decreased
same,Incidence,[4]; [9],0/5
same,Retches,[4]; [9],0* n° episodes
same,Vomits,[4]; [9],0* n° episodes
same,Incidence,[4]; [10],1/3
same,Latency responders only,[4]; [10],5 min
same,Retches,[4]; [11],54.3 ± 54.3 n° episodes
same,Vomits,[4]; [11],5.7 ± 5.7 n° episodes
same,Incidence,"[4]; emetic agent RS14203 1 mg/kg p.o., pre-treatment 62.5 μg/kg s.c.",2/3
same,Retches,[4]; [12],9.3 ± 7.9 n° episodes
same,Vomits,[4]; [12],1.7 ± 1.2 n° episodes
same,Latency responders only,[4]; [12],55.0 ± 49.0 min
same,Incidence,[4]; [13],1/3
same,Latency responders only,[4]; [13],72 min
same,Retches,[4]; [14],2 ± 2 n° episodes
same,Vomits,[4]; [14],1 ± 1 n° episodes
same,Incidence,[4]; [15],1/6
same,Latency responders only,[4]; [15],111 min
same,Retches,[4]; [16],0.2 ± 0.2 n° episodes
same,Vomits,[4]; [16],0.2 ± 0.2 n° episodes
same,Effect on RS14203-induced gagging or clawing at the mouth,[2],no effect
same,Clawing at mouth,[2]; pre-treatment 62.5 μg/kg s.c.,2/3
same,Gagging,[2]; pre-treatment 62.5 μg/kg s.c.,1/3
same,Hyperventilation,[2]; pre-treatment 62.5 μg/kg s.c.,2/3
same,Salivation,[2]; pre-treatment 62.5 μg/kg s.c.,2/3
same,Clawing at mouth,[2]; pre-treatment 125 μg/kg s.c.,1/3
same,Gagging,[2]; pre-treatment 125 μg/kg s.c.,1/3
same,Hyperventilation,[2]; pre-treatment 125 μg/kg s.c.,2/3
same,Salivation,[2]; pre-treatment 125 μg/kg s.c.,1/3
same,Clawing at mouth,[2]; pre-treatment 250 μg/kg s.c.,5/6
same,Gagging,[2]; pre-treatment 250 μg/kg s.c.,5/6
same,Hyperventilation,[2]; pre-treatment 250 μg/kg s.c.,one out of six
same,Salivation,[2]; pre-treatment 250 μg/kg s.c.,none of the animals
same,Hyperventilation,[2]; [17],1/6
same,Salivation,[2]; [17],0/6
same,Emesis triggered by the compound by itself,[5],did not trigger emesis
same,Sedation following the administration,[5]; appeared dose-related,light sedation
same,Effect on emesis,[6],no effect on emesis
same,Sedation,[6],induced sedation
same,Emetic ED50,[7],0.025 mg/kg
same,Incidence and frequency of vomiting following strabismus surgery,[8],lower the incidence and frequency of vomiting
